The target in this experiment is T1, wtKIT (Homo sapiens, UniProt P10721).
T1 construct: 1888289AM in the reaction mixtures
Put plainly: HTRF biochemical assay, wtKIT (phosphorylation of a peptide substrate). The following applies: Table 4. In short, it runs like this: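 HTRF read-out of FAM-peptide (1 µM) phosphorylation after anti-phosphotyrosine antibody addition and EDTA quench. Reaction: 5.0 nM wtKIT, 400 µM ATP, 10 mM Mn2+, HEPES pH 7.5, 1% DMSO, 3 h, 25 °C; optional enzyme-compound preincubation; enzyme level set for 10-20% conversion.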

Bounds are passed on as bounds.

This passage reports IC50 results from patent US20240254119A1 (THIRD HARMONIC BIO, INC., priority 2022, published 2024).

A word on the IC50: it is the concentration that inhibits the measured activity by half.

T1 sequence (P10721 26-976): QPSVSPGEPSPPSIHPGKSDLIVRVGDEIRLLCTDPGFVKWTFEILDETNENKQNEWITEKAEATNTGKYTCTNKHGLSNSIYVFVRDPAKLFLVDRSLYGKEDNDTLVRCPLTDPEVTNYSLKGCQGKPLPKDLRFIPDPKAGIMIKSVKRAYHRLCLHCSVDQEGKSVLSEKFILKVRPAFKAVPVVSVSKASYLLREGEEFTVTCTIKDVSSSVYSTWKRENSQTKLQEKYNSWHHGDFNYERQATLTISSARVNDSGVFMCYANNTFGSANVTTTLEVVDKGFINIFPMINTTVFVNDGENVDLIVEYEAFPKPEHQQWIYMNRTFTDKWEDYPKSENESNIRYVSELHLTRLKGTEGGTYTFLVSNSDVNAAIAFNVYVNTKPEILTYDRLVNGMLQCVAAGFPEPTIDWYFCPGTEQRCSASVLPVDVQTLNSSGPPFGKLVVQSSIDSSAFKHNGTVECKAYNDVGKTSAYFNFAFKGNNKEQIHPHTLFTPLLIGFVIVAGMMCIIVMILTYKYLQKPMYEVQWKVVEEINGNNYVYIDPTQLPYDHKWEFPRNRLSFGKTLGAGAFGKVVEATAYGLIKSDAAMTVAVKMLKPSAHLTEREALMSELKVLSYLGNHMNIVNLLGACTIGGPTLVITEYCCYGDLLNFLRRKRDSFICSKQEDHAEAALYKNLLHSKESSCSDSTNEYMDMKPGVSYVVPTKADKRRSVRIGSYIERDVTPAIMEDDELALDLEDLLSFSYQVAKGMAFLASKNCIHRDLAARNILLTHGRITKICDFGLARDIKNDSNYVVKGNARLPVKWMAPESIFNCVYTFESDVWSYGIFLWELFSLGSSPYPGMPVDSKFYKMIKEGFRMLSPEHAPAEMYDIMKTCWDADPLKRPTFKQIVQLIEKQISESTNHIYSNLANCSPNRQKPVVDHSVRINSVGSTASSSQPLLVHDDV

With `Cc1ccc(-c2noc([C@H]3C[C@@H]3F)n2)cc1NC(=O)c1cnc2cc(C(=O)O)ccn12` [Compound I-491], the IC50 was 50 to 500 nM.
`Cc1ccn2c(C(=O)Nc3cc(-c4noc(C5CCC(F)(F)CC5)n4)ccc3C)cnc2c1` [Compound I-540, 4 N-(5-(5-(4,4-difluorocyclohexyl)-1,2,4-oxadiazol-3-yl)-2-methylphenyl)-7-methylimidazo[1,2-a]pyridine-3-carboxamide]: the IC50 was at most 50 nM.
Consider `Cc1ccc(-c2noc([C@H]3C[C@@H]3F)n2)cc1NC(=O)c1cnc2ccc(-c3ccn(C)n3)cn12` [Compound I-531, N-(5-(5-((1R,2S)-2-fluorocyclopropyl)-1,2,4-oxadiazol-3-yl)-2-methylphenyl)-6-(1-methyl-1H-pyrazol-3-yl)imidazo[1,2-a]pyridine-3-carboxamide], for which the 50% inhibitory concentration (IC50) was at most 50 nM.
Turning to `Cc1ccc(-c2noc([C@H]3C[C@@H]3F)n2)cc1NC(=O)c1cnc2cc(-c3ccn(C)n3)ccn12` [Compound I-529, N-(5-(5-((1R,2S)-2-fluorocyclopropyl)-1,2,4-oxadiazol-3-yl)-2-methylphenyl)-7-(1-methyl-1H-pyrazol-3-yl)imidazo[1,2-a]pyridine-3-carboxamide], the IC50 is at most 50 nM.
For the molecule `Cc1ccc(-c2noc(CC(O)C(F)F)n2)cc1NC(=O)c1cnc2ccccn12` (centres unmarked) [Compound I-476], the IC50 is at most 50 nM.
As for `Cc1nc(-c2ccc(C)c(NC(=O)c3cnc4cc(OC5CCOC5)ccn34)c2)no1` (single isomer, unassigned) [Compound I-748], the figure is 50 to 500 nM.
As for `Cc1ccc(-c2noc(C[C@H](O)C(F)F)n2)cc1NC(=O)c1cnc2cc(OCC(C)(C)O)ccn12` [Compound I-576], the figure is at most 50 nM; as for `CCc1nc(-c2ccc(C)c(NC(=O)c3cnc4cc(-c5cscn5)ccn34)c2)no1` [Compound I-720], at most 50 nM; as for `Cc1nc(-c2ccc(C)c(NC(=O)c3cnc4cc(Cl)ccn34)c2)no1` [Compound I-675], at most 50 nM.
As for `Cc1ccc(-c2noc([C@H]3C[C@@H]3F)n2)cc1NC(=O)c1cnn2cc(CCOCCO)ccc12` [Compound I-503, N-(5-(5-((1R,2S)-2-fluorocyclopropyl)-1,2,4-oxadiazol-3-yl)-2-methylphenyl)-6-(2-(2-hydroxyethoxy)ethyl)pyrazolo[1,5-a]pyridine-3-carboxamide], the figure is at most 50 nM; as for `Cc1ccc(-c2noc(C3CC(F)(F)C3)n2)cc1NC(=O)c1cnc2cc(COCC(C)(C)O)ccn12` [Compound I-521, N-(5-(5-(3,3-difluorocyclobutyl)-1,2,4-oxadiazol-3-yl)-2-methylphenyl)-7-((2-hydroxy-2-methylpropoxy)methyl)imidazo[1,2-a]pyridine-3-carboxamide], at most 50 nM.
With `Cc1ccn2c(C(=O)Nc3cc(-c4noc(C5CCCCC5)n4)ccc3C)cnc2c1` [Compound I-539], the IC50 is at most 50 nM.
Consider `CNC(C)COCc1ccn2c(C(=O)Nc3cc(-c4noc(CC(O)C(F)F)n4)ccc3C)cnc2c1` (centres unmarked) [Compound I-599], for which the IC50 was 50 to 500 nM.
`Cc1ccc(-c2noc(C[C@H](O)C(F)F)n2)cc1NC(=O)c1cnc2cc(OCCCCO)ccn12` [Compound I-568, (S)—N-(5-(5-(3,3-difluoro-2-hydroxypropyl)-1,2,4-oxadiazol-3-yl)-2-methylphenyl)-7-(4-hydroxybutoxy)imidazo[1,2-a]pyridine-3-carboxamide]: the IC50 was at most 50 nM.
As to `COc1cc2ncc(C(=O)Nc3cc(-c4noc(N5CC(F)(F)C5)n4)ccc3C)n2cc1F` [Compound I-611], the half-inhibitory concentration (IC50) was at most 50 nM.
As for `COC(C)(C)COCc1ccn2c(C(=O)Nc3cc(-c4noc([C@H]5C[C@@H]5F)n4)ccc3C)cnc2c1` [Compound I-465], the figure is 50 to 500 nM; as for `COCc1ccn2c(C(=O)Nc3cc(-c4ncon4)ccc3C)cnc2c1` [Compound I-677], 50 to 500 nM; as for `COc1ccn2c(C(=O)Nc3cc(-c4noc(CCC(C)(C)O)n4)ccc3C)cnc2c1` [Compound I-561, N-(5-(5-(3-hydroxy-3-methylbutyl)-1,2,4-oxadiazol-3-yl)-2-methylphenyl)-7-methoxyimidazo[1,2-a]pyridine-3-carboxamide], at most 50 nM.
As for `COc1ccn2c(C(=O)Nc3cc(-c4noc(-c5ccc(C)cn5)n4)ccc3C)cnc2c1` [Compound I-556, 7-methoxy-N-(2-methyl-5-(5-(5-methylpyridin-2-yl)-1,2,4-oxadiazol-3-yl)phenyl)imidazo[1,2-a]pyridine-3-carboxamide], the figure is at most 50 nM; as for `Cc1nc(-c2ccc(C)c(NC(=O)c3cnc4cc(C5COC5)ccn34)c2)no1` [Compound I-687], 50 to 500 nM; as for `Cc1ccc(-c2noc([C@H]3C[C@@H]3F)n2)cc1NC(=O)c1cnc2cc(COC[C@@H](O)C(F)F)ccn12` [Compound I-500, 7-(((R)-3,3-difluoro-2-hydroxypropoxy)methyl)-N-(5-(5-((1R,2S)-2-fluorocyclopropyl)-1,2,4-oxadiazol-3-yl)-2-methylphenyl)imidazo[1,2-a]pyridine-3-carboxamide], at most 50 nM.
As for `Cc1ccc(-c2noc([C@H]3C[C@@H]3F)n2)cc1NC(=O)c1cnc2cc(F)c(Cl)cn12` [Compound I-605], the figure is 50 to 500 nM; as for `Cc1ccn2c(C(=O)Nc3cc(-c4noc(CC5CCCO5)n4)ccc3C)cnc2c1` (centres unmarked) [Compound I-553, 7-methyl-N-(2-methyl-5-(5-((tetrahydrofuran-2-yl)methyl)-1,2,4-oxadiazol-3-yl)phenyl)imidazo[1,2-a]pyridine-3-carboxamide], at most 50 nM.
Consider `COc1ccn2c(C(=O)Nc3cc(-c4noc(CC5COC5)n4)ccc3C)cnc2c1` [Compound I-633, 7-Methoxy-N-[2-methyl-5-[5-(oxetan-3-ylmethyl)-1,2,4-oxadiazol-3-yl]phenyl]imidazo[1,2-a]pyridine-3-carboxamide], for which the IC50 is at most 50 nM.
Take `Cc1ccc(-c2noc([C@H]3C[C@@H]3F)n2)cc1NC(=O)c1cnc2cc3c(cn12)C(C)OC3` (single isomer, unassigned) [Compound I-483, (4R*)—N-[5-[5-[(1R,2S)-2-fluorocyclopropyl]-1,2,4-oxadiazol-3-yl]-2-methyl-phenyl]-4-methyl-5-oxa-1,10-diazatricyclo[7.3.0.0^3,7]dodeca-2,7,9,11-tetraene-12-carboxamide]: the IC50 is at most 50 nM.
Take `Cc1ccc(-c2noc(C[C@H](O)C(F)F)n2)cc1NC(=O)c1cnc2cc(O)ccn12` [Compound I-574, (S)—N-(5-(5-(3,3-difluoro-2-hydroxypropyl)-1,2,4-oxadiazol-3-yl)-2-methylphenyl)-7-hydroxyimidazo[1,2-a]pyridine-3-carboxamide]: the IC50 is at most 50 nM.
Regarding `Cc1ccc(-c2noc([C@H]3C[C@@H]3F)n2)cc1NC(=O)c1cnc2cc(COCCS(C)(=O)=O)ccn12` [Compound I-454, N-[5-[5-[(1R,2S)-2-fluorocyclopropyl]-1,2,4-oxadiazol-3-yl]-2-methyl-phenyl]-7-(2-methylsulfonylethoxymethyl)imidazo[1,2-a]pyridine-3-carboxamide], the 50% inhibitory concentration (IC50) is at most 50 nM.
In the case of `Cc1nc(-c2ccc(C)c(NC(=O)c3cnc4cc(-c5cscn5)ccn34)c2)no1` [Compound I-548, N-(2-methyl-5-(5-methyl-1,2,4-oxadiazol-3-yl)phenyl)-7-(thiazol-4-yl)imidazo[1,2-a]pyridine-3-carboxamide], the IC50 is at most 50 nM.
With `Cc1ccc(-c2noc([C@H]3C[C@@H]3F)n2)cc1NC(=O)c1cnc2cc(COCC(C)O)ccn12` (single isomer, unassigned) [Compound I-469, N-[5-[5-[(1R,2S)-2-fluorocyclopropyl]-1,2,4-oxadiazol-3-yl]-2-methyl-phenyl]-7-[[(2S*)-2-hydroxypropoxy]methyl]imidazo[1,2-a]pyridine-3-carboxamide], the half-inhibitory concentration (IC50) was at most 50 nM.
Consider `Cc1ccc(-c2noc(-c3cccnc3)n2)cc1NC(=O)c1cnc2cc(COCCO)ccn12` [Compound I-708], for which the IC50 was 50 to 500 nM.
`Cc1ccc(-c2noc(C[C@H](C)O)n2)cc1NC(=O)c1cnc2cc(Cl)ccn12` [Compound I-602]: the half-inhibitory concentration (IC50) was at most 50 nM.
With `Cc1ccc(-c2noc([C@H]3C[C@@H]3F)n2)cc1NC(=O)c1cnn2ccc(OC(C)C)cc12` [Compound I-493, N-(5-(5-((1R,2S)-2-fluorocyclopropyl)-1,2,4-oxadiazol-3-yl)-2-methylphenyl)-5-isopropoxypyrazolo[1,5-a]pyridine-3-carboxamide], the IC50 was at most 50 nM.
As for `Cc1ccc(-c2noc([C@H]3C[C@@H]3F)n2)cc1NC(=O)c1cnc2cc(C3CC(O)C3)ccn12` (stereo partly drawn) [Compound I-478, N-[5-[5-[(1R,2S)-2-fluorocyclopropyl]-1,2,4-oxadiazol-3-yl]-2-methyl-phenyl]-7-(3-hydroxycyclobutyl)imidazo[1,2-a]pyridine-3-carboxamide], the figure is at most 50 nM.
As for `Cc1ccc(-c2noc([C@H]3C[C@@H]3F)n2)cc1NC(=O)c1cnc2cc(C(C)OCCO)ccn12` (relative stereo) [Compound I-451, N-[5-[5-[(1R,2S)-2-fluorocyclopropyl]-1,2,4-oxadiazol-3-yl]-2-methyl-phenyl]-7-[(1R*)-1-(2-hydroxyethoxy)ethyl]imidazo[1,2-a]pyridine-3-carboxamide], the figure is at most 50 nM.
As for `Cc1ccc(-c2noc([C@H]3C[C@@H]3F)n2)cc1NC(=O)c1cnc2cc(C(C)(C)CO)ccn12` [Compound I-464], the figure is 50 to 500 nM.
With `Cc1ccc(-c2noc(C3CC(NC(=O)OC(C)(C)C)C3)n2)cc1NC(=O)c1cnc2cc(Cl)ccn12` (centres unmarked) [Compound I-747], the half-maximal inhibitory concentration (IC50) fell in the range of 50 to 500 nM.
Consider `Cc1ccc(-c2ncon2)cc1NC(=O)c1cnc2cc(COCC(C)(C)O)ccn12` [Compound I-641, 7-((2-hydroxy-2-methylpropoxy)methyl)-N-(2-methyl-5-(1,2,4-oxadiazol-3-yl)phenyl)imidazo[1,2-a]pyridine-3-carboxamide], for which the IC50 was in the range of 500 to 5000 nM.
For `Cc1ccc(-c2noc(CC(C)O)n2)cc1NC(=O)c1cnc2cc(F)ccn12` (centres unmarked) [Compound I-606], the half-inhibitory concentration (IC50) is 50 to 500 nM.
